Data: US8058243B2, “Method for treating a brain cancer with ifenprodil” (HSC Research and Development Limited Partnership, priority 2006, dated 2011)
Where a name gives a salt, the structure may show the parent alone. Read-outs that look alike come from different tables or passages of the source.

System: murine neural precursor cells (neurosphere cultures)
Assay: HTS of LOPAC library against secondary neurosphere cultures, MTT proliferation assay at 3 μM, day 7 (z score, P value)
Type: cell-based, mouse
[1] = LOPAC primary screen, neurosphere MTT proliferation, 3 μM, day 7
[2] = yes/no: significantly inhibited neurosphere proliferation (P<0.01) in primary screen
[3] = primary LOPAC screen, 3 μM, MTT, neurosphere proliferation
[4] = yes/no: significantly inhibited neurosphere proliferation in the primary screen
[5] = LOPAC library screen, 3 μM, MTT, secondary neurosphere cultures, day 7
[6] = LOPAC screen, neurosphere MTT proliferation, 3 μM, day 7
[7] = yes/no: significantly inhibited neurosphere proliferation in primary screen
[8] = yes/no: significantly inhibited neurosphere proliferation (P<0.01) in the primary screen

Compound: CC[C@H](C)[C@H]1O[C@]2(CC[C@@H]1C)C[C@@H]1C[C@@H](C/C=C(\C)[C@@H](O[C@H]3C[C@H](OC)[C@@H](O[C@H]4C[C@H](OC)[C@@H](O)[C@H](C)O4)[C@H](C)O3)[C@@H](C)/C=C/C=C3\CO[C@@H]4[C@H](O)C(C)=C[C@@H](C(=O)O1)[C@]34O)O2 [Ivermectin]
- Z Score: 1.507
- Z score [1]: 1.507
- Activity [2]: no

Compound: COc1cc2c(cc1OC)[C@@H](c1ccccc1)CN(C)CC2.O=C(O)/C=C\C(=O)O [R(−)-SCH-12679 maleate]
- Z Score: 1.6092
- Z score [3]: 1.609
- Activity [4]: no

Compound: CCCCNc1cc(C(=O)O)cc(S(N)(=O)=O)c1Oc1ccccc1 [Bumetanide]
- Z Score [5]: −2.182
- Z score [6]: −2.182
- Activity [2]: no

Compound: COc1ccccc1OCC(O)CN1CCN(CC(=O)Nc2c(C)cccc2C)CC1 (stereo not shown) [Ranolazine dihydrochloride]
- Z Score [5]: −2.104
- Z score [1]: −2.104
- Activity [7]: no

Compound: NC(CP(=O)(O)O)C(=O)O (racemic) [(±)-2-Amino-3-phosphonopropionic acid]
- Z score [3]: 1.250
- Activity [4]: no

Compound: COc1cc(C(O)CO)ccc1OS(=O)(=O)[O-].[K+] (stereo not shown) [MHPG sulfate potassium]
- Z Score: −0.5556
- Z score [1]: −0.556
- Activity [2]: no

Compound: CCN(CC)c1ncnc2c1ncn2[C@@H]1O[C@H](COP(=O)([O-])OP(=O)([O-])C(Br)(Br)P(=O)([O-])O)[C@@H](O)[C@H]1O.[Na+].[Na+].[Na+] [ARL 67156 trisodium salt]
- Z Score: −0.168
- Z score [3]: −0.168
- Activity [4]: no

Compound: CCN(CC)CCCC(C)Nc1c2ccc(Cl)cc2nc2ccc(OC)cc12 (stereo not shown) [Quinacrine dihydrochloride]
- Activity: yes
- Z Score [5]: −9.712
- Z score [1]: −9.712

Compound: Cl.NCCc1ccc(S(=O)(=O)F)cc1 [4-(2-Aminoethyl)benzenesulfonyl fluoride hydrochloride]
- Z Score: 0.3634
- Z score [3]: 0.363
- Activity [4]: no

Compound: CCN(CCCl)Cc1ccccc1Br.Cl [DSP-4 hydrochloride]
- Z Score: 1.518
- Z score [1]: 1.518
- Activity [8]: no

Compound: CCCN1CCO[C@@H]2c3cc(O)ccc3OC[C@H]21.Cl [(B1)-PD 128,907 hydrochloride]
- Z Score: 1.164

Compound: FC(F)(F)c1ccccc1-n1ccnc1 [1-[2-(Trifluoromethyl)phenyl]imidazole]
- Z Score (168 h, 3 µM): −0.1576
- Z score (168 h, 3 µM): −0.158
- Activity [7]: no

Compound: CC[C@H](CO)Nc1nc(NCc2ccccc2)c2ncn(C(C)C)c2n1 [Roscovitine]
- Activity: no
- Z Score: 0.00273
- Z score: 0.003

Compound: C[C@@H]1OC[C@H](C[N+](C)(C)C)O1.[I-] [(+)-cis-Dioxolane iodide]
- Z Score: −3.402
- Z score [1]: −3.402
- Activity [8]: yes

Compound: Cc1c2ccncc2c(C)c2c1[nH]c1ccccc12 [Ellipticine]
- Z Score [5]: −8.321

Compound: CN1[C@@H]2CC[C@H]1CC(OC(=O)c1c[nH]c3ccccc13)C2.Cl (stereo partly shown) [3-Tropanyl-indole-3-carboxylate hydrochloride]
- Z Score: −1.528
- Z score [3]: −1.528
- Activity [4]: no

Compound: Nc1ncnc2c1nc(Sc1ccc(Cl)cc1)n2C1OC2COP(=O)(O)OC2C1O (stereo in doubt) [8-(4-Chlorophenylthio)-cAMP sodium]
- Z Score (LOPAC library screen, 3 μM, MTT, neurosphere cultures): 1.217
- Z score [6]: 1.217
- Activity [2]: no

Compound: CCOC(=O)C(C)(C)Oc1ccc(Cl)cc1 [Clofibrate]
- Z Score [5]: −1.738
- Z score [6]: −1.738

Compound: Nc1nc(Cl)nc2c1ncn2[C@@H]1O[C@H](COP(=O)([O-])OP(=O)([O-])OP(=O)([O-])[O-])[C@@H](O)[C@H]1O.[Na+].[Na+].[Na+].[Na+] [2-Chloroadenosine triphosphate tetrasodium]
- Z Score (168 h, 3 µM): 1.149
- Z score (168 h, 3 µM): 1.149
- Activity [2]: no

Compound: (−)-Perillic acid
- Z Score: −1.321
